The values below come from US20220024877A1 (Kansas State University Research Foundation, priority 2018, published 2022).

Test [1] is described as follows: Copper(I) binding constant of NNSN compounds (1H-NMR titration with CuBr in D4-methanol). The settings on record: for Binding constant: Cu-NNSN 1:1 stoichiometry; for Copper (I) binding constant: Table I. The protocol: They were recorded in D4-methanol by means of adding aliquots of a 5 mmol CuBr stock solution in D4-methanol to the 1 mmol NNSN-compound, resulting in 0, 0.5, 1.0, 2.0 and 3.0 mmol CuBr concentration in D4-methanol.

Another test has as its system MRSA. In words: In vitro activity against S. aureus (MRSA), MIC with or without Cu supplementation. As to conditions: for MIC: Staphylococcus aureus, MRSA; for MIC* against MRSA: kinetic data (determined from bacteria growth experiments), resulting in IC50 values similar to MIC values.
Test [2] deals with Avirulent Mtb strain mc26206 (H37Rv ΔpanCD ΔleuCD, double auxotroph). In words: microbe, parasite or virus in culture. It is filed as cell-based. As to conditions: Mycobacterium tuberculosis.
For another test, the system named is S. aureus strain 1471. Kind of test: Drop assay against S. aureus strain 1471 with or without copper. As to conditions: Staphylococcus aureus, 1471, read-out: MIC: +50 μM Cu.
In test [3] the test system is multi-drug resistant Gram-positive bacteria. As to conditions: current antibiotics, background section; cited from earlier work.
Where [4] appears, read: read-out: MIC* against MRSA (μM), kinetic data (determined from bacteria growth experiments), resulting in IC50 values similar to MIC values.

Values after ≈ are worked out from the molar mass of the structure shown. Read-outs that look alike come from different tables or passages of the source. Bounds are passed on as bounds.

Protocol for MRSA: S. aureus was inoculated in Mueller-Hinton medium from frozen stocks and grown for 2-4 h (until reaching an OD600˜1) at 37° C. while shaking. Once the OD was reached, bacteria were harvested and diluted in Phenolred-free RPMI1640 medium to an OD of 0.01 (=inoculum). Test compounds where diluted from frozen DMSO-stocks were diluted in Phenolred-free RPMI1640 medium with or without Cu supplementation (100 μM) and serially diluted in 96-well plates in the same medium to achieve a final concentration of between 0.08 and 10 μM after addition of an equal volume of inoculum. Medium-only controls and growth controls in the absence of test compounds were also included. The plates were placed in sealed bags and incubated at 37° C. After 15-20 h incubation time, an OD600 reading was taken and analyzed. […] If kinetic data were required, resazurin was added to each well. Using a plate reader with incubation chamber, resazurin conversion was monitored by fluorescence reading every 20 min for up to 24 h. After normalizing the data to respective controls, the MIC was determined using the same definition as above.
Protocol for S. aureus strain 1471: For the drop assay, bacteria were grown in wells with or without copper, using a 1:2 drug titration starting at 10 μM.

For orientation: MIC means the smallest concentration in the dilution series that meets the test's criterion for growth inhibition. For the molecule `S=C(Nc1ccc(Cl)cc1)n1cccn1` [listing 1 of 2 here], in test [1], the “Binding constant” value is 2100 M⁻¹ and the “Copper (I) binding constant” value is 2100 M⁻¹. Moreover, inhibition of growth against MRSA (organism not named there) (MIC) required 5 µM (≈ 1.19 µg/mL). In addition, the “MIC* against MRSA” value against MRSA was 5.0 µM (≈ 1.19 µg/mL).
`S=C(Nc1ccc(Cl)cc1)n1cccn1` [listing 2 of 2 here]: the “Copper (I) binding constant” value in test [1] was determined as 1434 M⁻¹. The “MIC* against MRSA” value against MRSA stood at 1.25 µM (≈ 0.297 µg/mL).
On to `CC(C)(C)n1ccc(NC(=O)Nc2ccc(Cl)cc2)n1` [SB10, 1-(1-(tert-butyl)-1H-pyrazol-3-yl)-3-(4-chlorophenyl)urea], for which the “Binding constant” value in test [1] turned out to be 1786.13 M⁻¹.
For `Cn1ccc(NC(=O)Nc2ccc(Cl)cc2)n1` [SB11, 1-(4-chlorophenyl)-3-(1-methyl-1H-pyrazol-3-yl)urea], the “Binding constant” value in test [1] is < 100 M⁻¹.
The same measure, in the same setting: the result for `S=C(Nc1ccc(Cl)cc1)n1ccnn1` [SB18] reads < 1000 M⁻¹.
On the same count and under the same terms, the result for `FC(F)(F)c1ccn(C(=S)Nc2ccc(Cl)cc2)n1` [SB20] reads < 1000 M⁻¹.
For the molecule `O=[N+]([O-])c1ccc(NC(=S)n2cccn2)cc1` [SB21, N-(4-nitrophenyl)-1H-pyrazole-1-carbothioamide], the “Binding constant” value in test [1] was 26063 M⁻¹. The molecule also came in with an MIC against MRSA (organism not named there) of 10 µM (≈ 2.48 µg/mL).
The corresponding values for `Fc1ccc(NC(=S)n2cccn2)cc1` [SB23, N-(4-fluorophenyl)-1H-pyrazole-1-carbothioamide] are 22057 M⁻¹ and > 10 µM.
With `Cc1ccc(NC(=S)n2cccn2)cc1` [SB25, N-(p-tolyl)-1H-pyrazole-1-carbothioamide], in test [1], the “Copper (I) binding constant” value amounted to 1635 M⁻¹. Besides, the minimum inhibitory concentration (MIC) in the test on MRSA (setting [4]) worked out at 5 µM (≈ 1.09 µg/mL).
In the case of `S=C(Nc1ccc(Br)cc1)n1cccn1` [SB26, N-(4-bromophenyl)-1H-pyrazole-1-carbothioamide], in test [1], the “Copper (I) binding constant” value turned out to be 1550 M⁻¹. Besides, in the test on MRSA (setting [4]), the MIC amounted to 10 µM (≈ 2.82 µg/mL).
Take `O=[N+]([O-])c1ccc(NC(=S)Nc2cc[nH]n2)cc1` [SB28, 1-(4-nitrophenyl)-3-(1H-pyrazol-3-yl)thiourea]: the “Binding constant” value in test [1] came out at 1200 M⁻¹. Besides, the MIC with MRSA (read-out: MIC (MRSA), MRSA) came to 5 µM (≈ 1.32 µg/mL).
Turning to `Cn1ccc(NC(=S)Nc2ccc(Cl)cc2)n1` [SB29], in test [1], the “Binding constant” value worked out at 1150 M⁻¹.
Turning to `O=[N+]([O-])c1cnn(C(=S)Nc2ccc(Cl)cc2)c1` [SB30, N-(4-chlorophenyl)-4-nitro-1H-pyrazole-1-carbothioamide], the “Binding constant” value in test [1] is 1100 M⁻¹.
`COc1ccc(NC(=S)n2ccc(N)n2)cc1` [SB31, 3-amino-N-(4-methoxyphenyl)-1H-pyrazole-1-carbothioamide]: the “Copper (I) binding constant” value in test [1] worked out at 5452 M⁻¹. Further, in the test with MRSA (setting [4]), the minimum inhibitory concentration (MIC) was found to be 10 µM (≈ 2.48 µg/mL).
The corresponding values for `Cc1ccc(NC(=S)n2ccc(N)n2)cc1` [SB32, 3-amino-N-(p-tolyl)-1H-pyrazole-1-carbothioamide] are 6140 M⁻¹ and 2.5 µM (≈ 0.581 µg/mL).
Consider `Nc1ccn(C(=S)Nc2ccc(Br)cc2)n1` [SB33, 3-amino-N-(4-bromophenyl)-1H-pyrazole-1-carbothioamide], for which the “Copper (I) binding constant” value in test [1] worked out at 5830 M⁻¹. The MIC with MRSA (setting [4]) amounted to 1.25 µM (≈ 0.371 µg/mL).
Consider `Nc1ccn(C(=S)Nc2ccc(F)cc2)n1` [SB37, 3-amino-N-(4-fluorophenyl)-1H-pyrazole-1-carbothioamide], for which, in test [1], the “Copper (I) binding constant” value was found to be 5540 M⁻¹. Also, the MIC in the test with MRSA (setting [4]) came out at 10 µM (≈ 2.36 µg/mL).
For the molecule `O=[N+]([O-])c1cnn(C(=S)Nc2ccc(Cl)cc2)c1` [SB38], in test [1], the “Binding constant” value was < 100 M⁻¹.
For the molecule `Nc1cnn(C(=S)Nc2ccc(Cl)cc2)c1` [SB39], the “Binding constant” value in test [1] came to 2200 M⁻¹.
As to `CN(C)c1ccn(C(=S)Nc2ccc(Cl)cc2)n1` [SB40, N-(4-chlorophenyl)-3-(dimethylamino)-1H-pyrazole-1-carbothioamide], in test [1], the “Copper (I) binding constant” value stood at 58500 M⁻¹. Moreover, the MIC in the test with MRSA (setting [4]) was determined as 0.6 µM (≈ 0.168 µg/mL).
Usually IC50 stands for the concentration at which inhibition is half-maximal. As for `CN(C(=S)Nc1ccc(Cl)cc1)c1ccn(C(=S)Nc2ccc(Cl)cc2)n1` [SB45, N-(4-chlorophenyl)-3-(3-(4-chlorophenyl)-1-methylthioureido)-1H-pyrazole-1-carbothioamide], in the test with MRSA (setting [4]), the MIC is < 0.016 µM. Further, the IC50 was 2 µM in test [2] (read-out: IC50 +Cu) and > 50 µM in test [2] (read-out: IC50 −Cu). For the same molecule, the results for the MIC90 in test [2] (read-out: MIC90 +Cu) and in test [2] (read-out: MIC90 −Cu) were 3.5 µM (≈ 1.53 µg/mL) and > 100 µM, respectively.
The corresponding values for `S=C(Nc1ccccc1Cl)n1cccn1` [SB46, N-(2-chlorophenyl)-1H-pyrazole-1-carbothioamide] are 0.3 µM (≈ 0.0713 µg/mL), 10 µM, > 100 µM, > 100 µM and > 100 µM.
Regarding `Cc1nn(C(=S)Nc2ccc(Cl)cc2)cc1[N+](=O)[O-]` [SB47, N-(4-chlorophenyl)-3-methyl-4-nitro-1H-pyrazole-1-carbothioamide], the MIC with MRSA (setting [4]) was determined as 2.5 µM (≈ 0.742 µg/mL).
For the molecule `Nc1ccn(C(=S)Nc2ccccc2Cl)n1` [SB49, 3-amino-N-(2-chlorophenyl)-1H-pyrazole-1-carbothioamide], the MIC with MRSA (setting [4]) worked out at 0.6 µM (≈ 0.152 µg/mL).
`Nc1ccn(C(=S)Nc2cccc(Cl)c2)n1` [SB50, 3-amino-N-(3-chlorophenyl)-1H-pyrazole-1-carbothioamide]: the minimum inhibitory concentration (MIC) with MRSA (setting [4]) stood at 0.15 µM (≈ 0.0379 µg/mL).
Same read-out and setting: the result for `S=C(Nc1cccc(Cl)c1)n1cccn1` [SB52, N-(3-chlorophenyl)-1H-pyrazole-1-carbothioamide] reads 2.5 µM (≈ 0.594 µg/mL); that for `S=C(Nc1ccn(C(=S)Nc2ccccc2Cl)n1)Nc1ccccc1Cl` [SB53, N-(2-chlorophenyl)-3-(3-(2-chlorophenyl)thioureido)-1H-pyrazole-1-carbothioamide], 0.3 µM (≈ 0.127 µg/mL).
For `CN(C(=S)Nc1ccccc1Cl)c1ccn(C(=S)Nc2ccccc2Cl)n1` [SB55, N-(2-chlorophenyl)-3-(3-(2-chlorophenyl)-1-methylthioureido)-1H-pyrazole-1-carbothioamide], the MIC in the test on S. aureus strain 1471 is 10 µM (≈ 4.36 µg/mL).
The same measure, in the same setting: the value for `O=[N+]([O-])c1cnn(C(=S)Nc2ccccc2Cl)c1` [SB56, N-(2-chlorophenyl)-4-nitro-1H-pyrazole-1-carbothioamide] was 5 µM (≈ 1.41 µg/mL); that for `S=C(Nc1cccc(Cl)c1)Nc1ccn(C(=S)Nc2cccc(Cl)c2)n1` [SB57, N-(3-chlorophenyl)-3-(3-(3-chlorophenyl)thioureido)-1H-pyrazole-1-carbothioamide] was 0.6 µM (≈ 0.253 µg/mL).
As for `O=[N+]([O-])c1cnn(C(=S)Nc2cccc(Cl)c2)c1` [SB59, N-(3-chlorophenyl)-4-nitro-1H-pyrazole-1-carbothioamide], the MIC with S. aureus strain 1471 is 2.5 µM (≈ 0.707 µg/mL).
Same read-out and setting: the value for `Cc1ccn(C(=S)Nc2ccccc2Cl)n1` [SB60, N-(2-chlorophenyl)-3-methyl-1H-pyrazole-1-carbothioamide] was 1.25 µM (≈ 0.315 µg/mL).
For the molecule `Nc1cnn(C(=S)NCc2ccccc2Cl)c1` [SB62, 4-amino-N-(2-chlorobenzyl)-1H-pyrazole-1-carbothioamide], the MIC with S. aureus strain 1471 is 5 µM (≈ 1.33 µg/mL).
With `O=[N+]([O-])c1ccc(COc2ccn(C(=S)Nc3ccc(Cl)cc3)n2)cc1` [SB63, N-(4-chlorophenyl)-3-((4-nitrobenzyl)oxy)-1H-pyrazole-1-carbothioamide], the MIC against MRSA (organism not named there) is > 10 µM.
In the case of `S=C(Nc1ccccc1Cl)n1ccc(OCc2ccccc2)n1` [SB64, 3-(benzyloxy)-N-(2-chlorophenyl)-1H-pyrazole-1-carbothioamide], the values for the half-maximal inhibitory concentration (IC50) in test [2] (read-out: IC50 +Cu) and in test [2] (read-out: IC50 −Cu) were 0.8 µM and > 100 µM, respectively. Besides, the MIC90 was 1.6 µM (≈ 0.55 µg/mL) in test [2] (read-out: MIC90 +Cu) and > 100 µM in test [2] (read-out: MIC90 −Cu).
`S=C(Nc1ccc(Cl)cc1)n1cc(Br)cn1` [SB68, 4-bromo-N-(4-chlorophenyl)-1H-pyrazole-1-carbothioamide] yielded an MIC in the test on MRSA (organism not named there) of 10 µM (≈ 3.17 µg/mL).
Same read-out and setting: the value for `Cc1cccc(C)c1NC(=S)n1cccn1` [SB71, N-(2,6-dimethylphenyl)-1H-pyrazole-1-carbothioamide] was 0.6 µM (≈ 0.139 µg/mL); that for `Cc1ccn(C(=S)Nc2c(C)cccc2C)n1` [SB72, N-(2,6-dimethylphenyl)-3-methyl-1H-pyrazole-1-carbothioamide] was 0.6 µM (≈ 0.147 µg/mL).
For the molecule `COC(=O)c1ccn(C(=S)Nc2ccccc2Cl)n1` [SB73], the “Copper (I) binding constant” value in test [1] is 985.27 M⁻¹. In addition, the minimal inhibitory concentration (MIC) with MRSA (setting [4]) came to 5 µM (≈ 1.48 µg/mL).
The corresponding values for `COC(=O)c1ccn(C(=S)Nc2cccc(Cl)c2)n1` [SB74, Methyl 1-((3-chlorophenyl)carbamothioyl)-1H-pyrazole-3-carboxylate] are 1127.86 M⁻¹ and 2.5 µM (≈ 0.739 µg/mL).
In the same order, the values of `CCOC(=O)c1ccn(C(=S)Nc2ccc(Cl)cc2)n1` [SB77] are 1580.08 M⁻¹ and 0.6 µM (≈ 0.186 µg/mL).
Regarding `Nc1ccn(C(=S)Nc2ccc(N=C=S)cc2)n1` [SB79, 3-amino-N-(4-isothiocyanatophenyl)-1H-pyrazole-1-carbothioamide], the IC50 in test [2] (read-out: IC50 +Cu) and in test [2] (read-out: IC50 −Cu) was > 100 µM throughout. For the same molecule, the MIC90 in test [2] (read-out: MIC90 +Cu) and in test [2] (read-out: MIC90 −Cu) was > 100 µM each time.
`CN[C@H](CC(C)C)C(=O)N[C@H]1C(=O)N[C@@H](CC(N)=O)C(=O)N[C@H]2C(=O)N[C@H]3C(=O)N[C@H](C(=O)N[C@H](C(=O)O)c4cc(O)cc(O)c4-c4cc3ccc4O)[C@H](O)c3ccc(c(Cl)c3)Oc3cc2cc(c3O[C@@H]2O[C@H](CO)[C@@H](O)[C@H](O)[C@H]2O[C@H]2C[C@](C)(N)[C@H](O)[C@H](C)O2)Oc2ccc(cc2Cl)[C@H]1O` [Vancomycin]: in test [3], the “minimum inhibitory concentrations (MICs)” value is 2.2 µM (≈ 3.19 µg/mL).
Consider Daptinomycin, for which, in test [3], the “minimum inhibitory concentrations (MICs)” value was 0.6 µM.
With Teicoplanin, the “minimum inhibitory concentrations (MICs)” value in test [3] is 0.8 to 1.0 µM.
